In ChEMBL document CHEMBL1201862, “PubChem BioAssay data set” (2004):
One block for each compound: values may come before it. The source made the active and inactive calls.

Assays:
Large T antigen = Large T antigen (Simian virus 40, UniProt P03070); format: functional, Betapolyomavirus macacae;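 also: Confirmatory-stage PubChem screen for compounds that inhibit SV40 T antigen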
Aminopeptidase N = target: T1, Aminopeptidase N (Plasmodium falciparum FcB1/Columbia, UniProt O96935); assay: malaria alanyl aminopeptidase activity blockers – biochemical, fluorogenic H-Leu-NHMec substrate, 1536-well (AID 1445); design: species or system Plasmodium falciparum 3D7, 3D7
T1 sequence (O96935 whole entry): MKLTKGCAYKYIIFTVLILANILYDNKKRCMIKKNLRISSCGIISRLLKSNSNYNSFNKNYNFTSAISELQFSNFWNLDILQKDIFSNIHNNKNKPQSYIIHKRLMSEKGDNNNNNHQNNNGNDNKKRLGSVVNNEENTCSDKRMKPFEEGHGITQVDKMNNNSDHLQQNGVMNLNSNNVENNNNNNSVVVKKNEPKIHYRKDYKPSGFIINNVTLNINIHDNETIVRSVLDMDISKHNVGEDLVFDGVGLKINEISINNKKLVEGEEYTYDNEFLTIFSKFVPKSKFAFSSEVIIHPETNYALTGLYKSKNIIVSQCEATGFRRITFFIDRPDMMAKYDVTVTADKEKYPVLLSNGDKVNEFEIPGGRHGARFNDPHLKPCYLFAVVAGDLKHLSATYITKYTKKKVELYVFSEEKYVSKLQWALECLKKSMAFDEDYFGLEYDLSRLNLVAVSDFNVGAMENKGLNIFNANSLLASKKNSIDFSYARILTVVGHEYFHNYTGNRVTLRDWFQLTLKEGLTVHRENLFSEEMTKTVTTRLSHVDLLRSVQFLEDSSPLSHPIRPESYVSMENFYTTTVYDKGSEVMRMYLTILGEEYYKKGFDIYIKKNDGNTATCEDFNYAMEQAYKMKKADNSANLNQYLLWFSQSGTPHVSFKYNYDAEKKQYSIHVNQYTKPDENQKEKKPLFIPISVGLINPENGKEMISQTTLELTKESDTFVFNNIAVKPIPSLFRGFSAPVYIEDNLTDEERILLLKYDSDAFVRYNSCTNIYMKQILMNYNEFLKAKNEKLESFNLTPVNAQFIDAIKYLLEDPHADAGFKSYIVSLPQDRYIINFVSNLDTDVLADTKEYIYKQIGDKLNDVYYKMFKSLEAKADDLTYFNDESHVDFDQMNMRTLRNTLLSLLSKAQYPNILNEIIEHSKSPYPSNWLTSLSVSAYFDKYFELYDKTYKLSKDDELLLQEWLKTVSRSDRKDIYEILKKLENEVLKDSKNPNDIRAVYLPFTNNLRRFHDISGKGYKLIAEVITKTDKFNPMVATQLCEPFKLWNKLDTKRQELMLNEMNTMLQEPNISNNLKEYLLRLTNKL

[1] = target: Glyceraldehyde-3-phosphate dehydrogenase (Homo sapiens, UniProt P04406)
[2] = target: T2, Alkaline phosphatase, tissue-nonspecific isozyme (Homo sapiens, UniProt P05186); assay: potency against alkaline phosphatase TNAP – biochemical, luminescent, dose response, SAR follow-up (AID 1056)
T2 sequence (P05186 whole entry): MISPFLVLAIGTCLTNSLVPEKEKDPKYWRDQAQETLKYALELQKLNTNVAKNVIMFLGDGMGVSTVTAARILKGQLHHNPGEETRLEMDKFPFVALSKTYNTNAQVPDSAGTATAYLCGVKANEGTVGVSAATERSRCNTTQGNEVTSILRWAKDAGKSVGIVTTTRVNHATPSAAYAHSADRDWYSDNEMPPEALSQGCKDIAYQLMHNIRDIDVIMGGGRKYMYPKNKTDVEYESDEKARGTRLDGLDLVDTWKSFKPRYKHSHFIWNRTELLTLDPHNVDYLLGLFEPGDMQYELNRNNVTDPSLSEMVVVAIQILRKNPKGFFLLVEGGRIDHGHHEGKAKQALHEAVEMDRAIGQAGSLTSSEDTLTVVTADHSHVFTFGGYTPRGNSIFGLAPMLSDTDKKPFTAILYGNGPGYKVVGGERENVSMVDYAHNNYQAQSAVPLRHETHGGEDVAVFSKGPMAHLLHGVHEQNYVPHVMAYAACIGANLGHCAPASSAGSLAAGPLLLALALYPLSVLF

Bcl-2-related protein A1 = target: T3, Bcl-2-related protein A1 (Mus musculus, UniProt Q07440); format: functional;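 also: confirmatory dose–response counterscreen on Bfl-1, used to check hits from a UBC13 polyubiquitin inhibitor campaign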
T3 sequence (Q07440 whole entry): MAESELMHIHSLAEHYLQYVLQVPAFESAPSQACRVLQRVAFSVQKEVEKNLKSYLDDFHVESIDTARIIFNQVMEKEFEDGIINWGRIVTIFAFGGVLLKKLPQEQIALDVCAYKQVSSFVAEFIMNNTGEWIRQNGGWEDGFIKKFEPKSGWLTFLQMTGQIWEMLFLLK

[3] = target: T4, Ubiquitin-conjugating enzyme E2 N (Homo sapiens, UniProt P61088); format: functional
T4 sequence (P61088 whole entry): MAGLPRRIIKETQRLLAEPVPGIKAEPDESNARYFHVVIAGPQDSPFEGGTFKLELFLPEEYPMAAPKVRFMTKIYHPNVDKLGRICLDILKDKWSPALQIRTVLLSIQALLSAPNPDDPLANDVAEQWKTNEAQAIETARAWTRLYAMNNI

[4] = target: T4, Ubiquitin-conjugating enzyme E2 N; format: functional; remark: listed apart in the source
[5] = target: Peroxisome proliferator-activated receptor gamma/Nuclear receptor coactivator 1 (Homo sapiens, UniProt P37231); assay: TR-FRET dose response biochemical High Throughput Screening assay for agonists of the steroid receptor coactivator 1 (SRC-1) recruitment by the peroxisome proliferator-activated receptor gamma (PPAR gamma): non-selective agonists. [Related pubchem assays (depositor defined):AID1300, AID1808, AID504735, AID631]; format: protein assay
Sequence of Peroxisome proliferator-activated receptor gamma/Nuclear receptor coactivator 1 (P37231 whole entry): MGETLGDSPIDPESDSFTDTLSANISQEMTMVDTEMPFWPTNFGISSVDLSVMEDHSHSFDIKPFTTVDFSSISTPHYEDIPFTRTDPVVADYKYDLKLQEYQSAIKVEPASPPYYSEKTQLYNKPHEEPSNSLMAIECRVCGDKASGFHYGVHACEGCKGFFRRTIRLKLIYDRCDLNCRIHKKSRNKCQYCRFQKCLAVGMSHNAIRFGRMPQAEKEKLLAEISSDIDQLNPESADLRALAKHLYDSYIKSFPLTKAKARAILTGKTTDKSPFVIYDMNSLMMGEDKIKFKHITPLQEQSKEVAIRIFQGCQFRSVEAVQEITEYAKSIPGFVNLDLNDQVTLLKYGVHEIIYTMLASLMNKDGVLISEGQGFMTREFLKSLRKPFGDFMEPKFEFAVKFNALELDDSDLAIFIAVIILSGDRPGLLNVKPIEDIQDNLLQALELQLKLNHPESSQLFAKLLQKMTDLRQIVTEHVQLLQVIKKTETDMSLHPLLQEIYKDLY
Sequence of Peroxisome proliferator-activated receptor gamma/Nuclear receptor coactivator 1 (Q15788 whole entry, further chain): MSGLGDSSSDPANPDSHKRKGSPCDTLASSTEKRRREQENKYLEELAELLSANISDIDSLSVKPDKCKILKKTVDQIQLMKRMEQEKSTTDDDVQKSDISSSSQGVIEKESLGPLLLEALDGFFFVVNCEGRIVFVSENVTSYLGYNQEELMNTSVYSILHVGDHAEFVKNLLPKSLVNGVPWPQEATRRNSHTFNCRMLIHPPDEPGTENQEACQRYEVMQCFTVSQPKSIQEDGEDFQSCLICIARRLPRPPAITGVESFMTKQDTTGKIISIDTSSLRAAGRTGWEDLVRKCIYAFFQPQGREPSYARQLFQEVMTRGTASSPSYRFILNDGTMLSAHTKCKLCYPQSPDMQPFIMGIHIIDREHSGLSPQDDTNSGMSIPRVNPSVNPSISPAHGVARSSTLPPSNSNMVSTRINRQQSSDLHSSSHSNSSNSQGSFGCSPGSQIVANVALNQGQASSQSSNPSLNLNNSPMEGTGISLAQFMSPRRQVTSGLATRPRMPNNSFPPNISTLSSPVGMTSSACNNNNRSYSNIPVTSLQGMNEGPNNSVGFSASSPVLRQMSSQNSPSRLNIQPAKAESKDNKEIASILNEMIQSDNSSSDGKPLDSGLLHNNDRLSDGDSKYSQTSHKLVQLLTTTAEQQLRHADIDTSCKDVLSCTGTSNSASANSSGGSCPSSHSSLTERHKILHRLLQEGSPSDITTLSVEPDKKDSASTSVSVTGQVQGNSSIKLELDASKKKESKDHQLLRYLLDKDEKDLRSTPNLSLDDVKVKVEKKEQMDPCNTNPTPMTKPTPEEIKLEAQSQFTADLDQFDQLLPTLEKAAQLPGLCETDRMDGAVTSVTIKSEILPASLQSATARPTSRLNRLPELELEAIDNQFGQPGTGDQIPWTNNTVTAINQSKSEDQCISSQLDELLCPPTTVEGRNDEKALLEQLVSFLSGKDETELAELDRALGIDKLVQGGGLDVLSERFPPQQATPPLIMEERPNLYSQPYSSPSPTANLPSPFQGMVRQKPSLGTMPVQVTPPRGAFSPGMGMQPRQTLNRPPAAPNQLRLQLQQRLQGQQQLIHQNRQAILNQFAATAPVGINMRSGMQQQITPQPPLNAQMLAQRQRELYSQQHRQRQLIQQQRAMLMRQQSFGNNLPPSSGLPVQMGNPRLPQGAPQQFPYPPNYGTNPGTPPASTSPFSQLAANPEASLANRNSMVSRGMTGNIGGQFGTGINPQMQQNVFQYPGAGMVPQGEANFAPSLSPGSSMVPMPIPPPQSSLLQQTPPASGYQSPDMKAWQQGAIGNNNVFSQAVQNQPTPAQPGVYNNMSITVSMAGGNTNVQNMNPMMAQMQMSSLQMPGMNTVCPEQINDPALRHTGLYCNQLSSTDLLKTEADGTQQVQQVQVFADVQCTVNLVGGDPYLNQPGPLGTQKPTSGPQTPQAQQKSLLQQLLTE

[6] = target: Peroxisome proliferator-activated receptor gamma/Nuclear receptor coactivator 3 (Homo sapiens, UniProt P37231); assay: TR-FRET dose response biochemical High Throughput Screening assay for agonists of the steroid receptor coactivator 3 (SRC-3) recruitment by the peroxisome proliferator-activated receptor gamma (PPAR gamma): non-selective agonists. [Related pubchem assays: 1301 (Confirmation screen.), 1048 (Primary screen.)]; format: functional
[7] = target: Peroxisome proliferator-activated receptor gamma/Nuclear receptor coactivator 2 (Homo sapiens, UniProt P37231); assay: TR-FRET dose response biochemical High Throughput Screening assay for agonists of the steroid receptor coactivator 2 (SRC-2) recruitment by the peroxisome proliferator-activated receptor gamma (PPAR gamma): non-selective agonists. [Related pubchem assays: 1297, 1032 ]; format: functional
Sequence of Peroxisome proliferator-activated receptor gamma/Nuclear receptor coactivator 2 (P37231 whole entry): as the sequence (P37231 whole entry) above
Sequence of Peroxisome proliferator-activated receptor gamma/Nuclear receptor coactivator 2 (Q15596 whole entry, further chain): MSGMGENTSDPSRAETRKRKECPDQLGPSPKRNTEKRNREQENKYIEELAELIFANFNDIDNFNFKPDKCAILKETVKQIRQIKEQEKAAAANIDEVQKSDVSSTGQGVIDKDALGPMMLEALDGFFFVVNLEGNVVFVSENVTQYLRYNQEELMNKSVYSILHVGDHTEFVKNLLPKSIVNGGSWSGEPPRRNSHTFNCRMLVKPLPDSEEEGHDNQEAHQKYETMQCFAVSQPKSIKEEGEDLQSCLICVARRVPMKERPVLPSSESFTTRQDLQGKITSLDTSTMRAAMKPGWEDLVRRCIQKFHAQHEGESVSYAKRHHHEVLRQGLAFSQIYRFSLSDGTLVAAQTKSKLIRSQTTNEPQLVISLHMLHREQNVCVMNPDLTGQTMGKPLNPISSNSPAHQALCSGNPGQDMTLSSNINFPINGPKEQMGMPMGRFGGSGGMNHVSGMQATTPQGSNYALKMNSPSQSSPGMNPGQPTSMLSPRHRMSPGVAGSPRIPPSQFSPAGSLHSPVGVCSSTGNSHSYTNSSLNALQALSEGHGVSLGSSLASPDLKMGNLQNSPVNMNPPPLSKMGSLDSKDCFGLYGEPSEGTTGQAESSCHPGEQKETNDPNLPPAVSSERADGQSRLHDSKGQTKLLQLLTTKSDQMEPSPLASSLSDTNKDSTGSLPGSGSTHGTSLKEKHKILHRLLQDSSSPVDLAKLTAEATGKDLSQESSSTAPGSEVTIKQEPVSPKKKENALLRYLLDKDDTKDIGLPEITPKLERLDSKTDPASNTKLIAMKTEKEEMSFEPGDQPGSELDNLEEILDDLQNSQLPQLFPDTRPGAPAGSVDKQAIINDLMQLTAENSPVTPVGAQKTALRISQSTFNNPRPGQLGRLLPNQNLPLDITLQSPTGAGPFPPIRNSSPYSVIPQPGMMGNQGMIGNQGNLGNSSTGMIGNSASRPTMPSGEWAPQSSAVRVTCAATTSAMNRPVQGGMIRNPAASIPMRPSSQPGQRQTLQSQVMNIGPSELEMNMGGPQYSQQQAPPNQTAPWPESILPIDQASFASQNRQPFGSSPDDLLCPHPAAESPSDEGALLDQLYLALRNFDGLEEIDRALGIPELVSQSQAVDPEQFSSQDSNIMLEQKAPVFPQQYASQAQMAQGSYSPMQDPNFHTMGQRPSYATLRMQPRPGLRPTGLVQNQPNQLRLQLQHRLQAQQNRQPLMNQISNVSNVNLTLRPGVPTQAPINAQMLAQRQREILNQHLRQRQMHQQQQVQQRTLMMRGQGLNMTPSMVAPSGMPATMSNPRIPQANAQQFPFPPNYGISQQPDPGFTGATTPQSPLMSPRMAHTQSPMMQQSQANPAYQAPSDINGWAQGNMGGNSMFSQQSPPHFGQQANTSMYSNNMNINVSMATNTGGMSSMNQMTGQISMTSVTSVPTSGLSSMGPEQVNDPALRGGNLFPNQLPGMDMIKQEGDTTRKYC

Beta-galactosidase = Beta-galactosidase (Escherichia coli, UniProt Q8VNN2); assay: detection-enzyme interference by beta-gal modulators – biochemical, E. coli enzyme, set 3, artefact control for CCR6 antagonist project, dose response (AID 504712); format: functional
[8] = target: G-protein coupled receptor 55 (Homo sapiens, UniProt Q9Y2T6); assay: inhibition of LPI-stimulated GPR55 beta-arrestin translocation – imaging, U2OS, beta-arrestin-GFP, LPI agonist, primary screen (AID 2013); format: functional;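 also: antagonist potency measured as reduced agonist-driven arrestin aggregation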
Sequence of G-protein coupled receptor 55 (Q9Y2T6 whole entry): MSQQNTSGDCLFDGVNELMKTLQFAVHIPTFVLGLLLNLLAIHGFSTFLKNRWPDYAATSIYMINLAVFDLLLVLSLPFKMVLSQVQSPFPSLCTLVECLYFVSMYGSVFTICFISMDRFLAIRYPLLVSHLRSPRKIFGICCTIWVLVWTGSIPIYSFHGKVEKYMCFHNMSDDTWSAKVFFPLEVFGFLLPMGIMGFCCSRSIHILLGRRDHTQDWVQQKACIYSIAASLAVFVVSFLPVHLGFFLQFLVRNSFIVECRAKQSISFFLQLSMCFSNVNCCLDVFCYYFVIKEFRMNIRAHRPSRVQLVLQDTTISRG

[9] = Trypanosoma cruzi growth suppression in host cells – NIH3T3 host cells, beta-gal luminescence, confirmation (AID 2044); format: functional, cell-based;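 also: intracellular parasites grown in NIH/3T3 mouse fibroblasts as host cells; luminescent beta-galactosidase reporter signal from transgenic T. cruzi replicating inside host cells; inhibitors lower the luminescence signal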
[10] = NIH3T3 cell viability loss – ATP luminescence, mouse fibroblasts, counter-screen, dose response (AID 2010); format: functional, cell-based;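 also: cells exposed to compound for about 90 hours before reading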
Genome polyprotein = Genome polyprotein (dengue virus type 2, UniProt P29990); assay: flavivirus cap methylation enzyme inhibition – biochemical, confirmation dose response, primary screen (AID 588689); format: functional
[11] = target: T5, DNA dC->dU-editing enzyme APOBEC-3A (Homo sapiens, UniProt P31941); assay: Dose Response confirmation of small molecule APOBEC3A DNA Deaminase Inhibitors via a fluorescence-based single-stranded DNA deaminase assay. [Related pubchem assays (depositor defined):AID493011, AID493024]; format: functional
T5 sequence (P31941 whole entry): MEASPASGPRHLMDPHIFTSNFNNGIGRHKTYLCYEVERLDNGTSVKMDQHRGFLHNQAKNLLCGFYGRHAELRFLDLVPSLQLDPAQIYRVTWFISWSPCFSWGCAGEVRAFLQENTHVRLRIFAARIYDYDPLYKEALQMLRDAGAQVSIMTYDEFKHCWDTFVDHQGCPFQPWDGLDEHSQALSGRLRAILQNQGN

[12] = target: T6, DNA dC->dU-editing enzyme APOBEC-3G (Homo sapiens, UniProt Q9HC16); format: functional
T6 sequence (Q9HC16 whole entry): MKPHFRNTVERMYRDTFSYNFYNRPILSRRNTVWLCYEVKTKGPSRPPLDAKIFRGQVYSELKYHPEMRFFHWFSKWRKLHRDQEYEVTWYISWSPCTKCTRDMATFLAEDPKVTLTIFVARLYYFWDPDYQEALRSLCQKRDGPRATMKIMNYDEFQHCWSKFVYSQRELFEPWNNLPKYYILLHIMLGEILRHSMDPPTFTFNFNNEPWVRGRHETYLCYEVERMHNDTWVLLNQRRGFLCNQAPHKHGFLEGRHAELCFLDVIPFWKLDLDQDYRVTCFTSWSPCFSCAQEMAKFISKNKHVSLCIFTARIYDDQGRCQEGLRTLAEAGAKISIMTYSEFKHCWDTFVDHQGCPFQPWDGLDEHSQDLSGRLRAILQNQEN

[13] = target: T6, DNA dC->dU-editing enzyme APOBEC-3G; assay: Dose Response confirmation of small molecule APOBEC3G DNA Deaminase Inhibitors via a fluorescence-based single-stranded DNA deaminase assay. [Related pubchem assays (depositor defined):AID493012, AID493028]; format: functional
[14] = target: T5, DNA dC->dU-editing enzyme APOBEC-3A; assay: A3A deaminase inhibition for selectivity – biochemical, dose response (AID 504722); format: functional
[15] = target: T7, Microphthalmia-associated transcription factor (Homo sapiens, UniProt O75030); assay: reducers of TRPM1 reporter luminescence, concentration series – cell-based, SK-MEL-5, cherry-picked, set 3, MITF inhibitor project, dose response (AID 493073); format: functional;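 also: SK-MEL-5 melanoma cells with luciferase driven by the MITF target TRPM1 promoter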
T7 sequence (O75030 whole entry): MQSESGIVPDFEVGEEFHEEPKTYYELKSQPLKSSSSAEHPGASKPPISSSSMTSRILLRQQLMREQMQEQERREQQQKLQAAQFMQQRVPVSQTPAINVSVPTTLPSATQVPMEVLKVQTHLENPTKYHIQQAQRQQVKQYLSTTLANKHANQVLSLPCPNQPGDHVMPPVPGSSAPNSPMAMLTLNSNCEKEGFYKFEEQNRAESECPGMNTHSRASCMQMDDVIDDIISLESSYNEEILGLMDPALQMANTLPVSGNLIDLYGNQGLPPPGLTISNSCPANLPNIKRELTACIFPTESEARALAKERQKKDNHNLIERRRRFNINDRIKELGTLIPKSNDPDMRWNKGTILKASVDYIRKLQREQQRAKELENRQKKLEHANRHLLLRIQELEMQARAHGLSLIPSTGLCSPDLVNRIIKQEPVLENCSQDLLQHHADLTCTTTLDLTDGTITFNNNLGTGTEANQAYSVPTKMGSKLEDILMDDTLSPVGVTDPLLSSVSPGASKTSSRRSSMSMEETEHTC

IC50 [1]: > 100 µM (not active)
IC50 [2]: > 100 µM (inactive)
SMILES: COc1ccc(Cc2nnc(N3C(=O)c4ccccc4C3=O)[nH]2)cc1

IC50 (Bcl-2-related protein A1): > 20 µM (inactive)
IC50 [3]: > 20 µM (inactive)
IC50 [4]: 17.8 µM (active)
SMILES: CN1CCN(C(=O)CCN2C(=O)/C(=C/c3ccccc3Cl)SC2=S)CC1

IC50 (Bcl-2-related protein A1): > 20 µM (inactive)
IC50 [3]: 4.17 µM (active)
IC50 [4]: 4.79 µM (active)
SMILES: CC(=O)c1ccc(OCC(O)CN2CCN(CCN3C(=O)c4cccc5cccc(c45)C3=O)CC2)cc1 (centres undefined)

IC50 (Bcl-2-related protein A1): > 20 µM (inactive)
IC50 [3]: 17.8 µM (active)
IC50 [4]: 15.4 µM (active)
SMILES: COc1ccccc1NC(=O)CN1CCC(n2nnc3cc(F)ccc32)CC1

EC50 [5]: 8.66 µM (active)
EC50 [6]: > 26.5 µM (not active)
EC50 [7]: 9.72 µM (active)
SMILES: COc1cccc(C2C=C(c3ccc(Br)s3)Nc3ncnn32)c1OC (centres undefined)

EC50 [5]: 27.8 µM (inactive)
EC50 [6]: > 79.4 µM (not active)
EC50 [7]: 27.5 µM (not active)
SMILES: CN=C(S)N1N=C(c2ccccc2)CC1c1ccc(Br)cc1 (centres undefined)

IC50 (Beta-galactosidase): > 66.6 µM (inactive)
IC50 [8]: 3.31 µM (active)
SMILES: O=C(Nc1ccccc1Cl)c1ccccc1Oc1ccc(C(F)(F)F)cc1[N+](=O)[O-]

IC50 [8]: 6.67 µM (active)
SMILES: O=C1OC(c2ccc(O)cc2)(c2ccc(O)cc2)c2ccccc21 [PHENOLPHTHALEIN]

EC50 [5]: 60 µM (inactive)
EC50 [6]: > 79.4 µM (not active)
EC50 [7]: 8.2 µM (active)
SMILES: Cc1ccc(S(=O)(=O)NCC(=O)OCC(=O)c2ccc(Br)s2)cc1

AC50 [15]: 5.3 µM (active)
SMILES: Cc1ccc(-c2cn3nc(C)c(C)nc3n2)cc1

IC50 (Aminopeptidase N): 39.3 µM (active)
SMILES: COc1ccc(-c2nnc(SCC(=O)Nc3cc(S(=O)(=O)N4CCCCC4)ccc3Cl)n2N)cc1

IC50 [1]: > 100 µM (not active)
IC50 [2]: 6 µM (active)
SMILES: CC(=O)Nc1nc(SCCCc2ccccc2)n[nH]1

Second part, the compound before the results:

SMILES: O=C(O)c1cc(S(=O)(=O)Nc2ccc3oc(=O)sc3c2)ccc1O
IC50 (Large T antigen): 33.3 µM (active)
IC50 (Aminopeptidase N): 70.9 µM (active)

SMILES: O=C(COc1ccccc1/C=C\c1nc(O)nc(O)c1[N+](=O)[O-])Nc1ccccc1
EC50 [9]: > 60 µM (not active)
EC50 [10]: > 60 µM (not active)
IC50 (Aminopeptidase N): 42.9 µM (active)
IC50 (Genome polyprotein): 39.9 µM (active)

SMILES: CCc1cccc(NC(=O)C[n+]2c3n(c4ccc(C(F)(F)F)cc42)CCCCC3)c1
IC50 [11]: 2.69 µM (active)
IC50 [12]: 5.22 µM (active)

SMILES: CCN(CC)C(=O)c1ncn(C)c1C(=O)N(CC)CC
IC50 [11]: 3.51 µM (active)
IC50 [12]: 3.23 µM (active)

SMILES: COc1cc(C2Nn3c(nnc3-c3ccccc3OC)S2)ccc1O (centres undefined)
IC50 [13]: 3.57 µM (active)
IC50 [14]: > 100 µM (inactive)

SMILES: O=[N+]([O-])c1ccc(/C=N/n2c(S)nnc2-c2cccnc2)cc1
IC50 [13]: 2.3 µM (active)
IC50 [14]: > 100 µM (inactive)

SMILES: COc1ccc(C(CC(=O)N2CCOCC2)c2c(OC)cc(OC)c3c(-c4ccccc4)cc(=O)oc23)cc1 (centres undefined)
IC50 [11]: 17 µM (active)
IC50 [12]: 50.9 µM (active)

SMILES: Cc1ccc(NS(=O)(=O)c2ccc3[nH]c(=O)c(=O)[nH]c3c2)cc1Cl
IC50 (Aminopeptidase N): 41.9 µM (active)
